# Columns and labels:
# [1] = Pharmacokinetic profile of a single intravitreal dose in monkeys; type: in vivo; conditions: single intravitreal dose 10 mg/eye in both eyes
# [2] = system: patients with GA; test: Phase 2 randomized sham-controlled clinical trial in GA: change in GA lesion size; type: in vivo, human; conditions: 15 mg intravitreal monthly or every other month for 12 months vs sham
# Description: A randomized, single-masked, sham-controlled clinical trial of pegcetacoplan in patients with GA was conducted. 246 patients aged ≥50 years were enrolled in the trial.
# Patients were randomized in a 2:2:1:1 manner to receive 15 mg pegcetacoplan (APL-2) monthly, 15 mg pegcetacoplan every other month, sham injection monthly or sham injection every other month. Patients in the pegcetacoplan arms received a dose of 15 mg of pegcetacoplan, injected into the vitreous humor in a 0.1 cc volume, monthly or every other month for 12 months followed by six months of monitoring after the end of treatment. In the sham-injection cohorts, patients received a simulated injection. The safety, tolerability, PK, and evidence of activity of multiple intravitreal injections of pegcetacoplan in patients with GA in at least one eye were assessed. The primary efficacy endpoint was change in GA lesion size from baseline to month 12. […] The adverse event profile is depicted in FIG. 3. (See also Liao et al., Ophthalmology 127:186-195 (2020).)
# [3] = system: patients with GA; test: Post hoc OCT analysis of Phase 2 trial: progression outside GA lesions (large drusen to iRORA/cRORA, iRORA to cRORA); type: in vivo, human; conditions: for reduction in the risk of progression to cRORA compared with sham: 12 months
# Description: Post hoc analysis was also conducted to assess disease progression outside of GA lesions. Participants in the study (n=246) were categorized into PM (n=86), EOM (n=79), and sham (n=81) categories. Eyes with missed injections and those that developed exudative AMD (whereupon pegcetacoplan treatment was discontinued) were excluded. […] Masked readers evaluated OCT scans outside a 500-micron perimeter from the GA border adhering to classification described in Sadda et al., Ophthalmology 125:537-548 (2018)). […] SD-OCT images obtained at baseline, Month 6, and Month 12 (using the Zeiss Cirrus or 156 Heidelberg Spectralis) using 7-line raster scans (30×5, 240 μm spacing, 7 sections, ART set to 25, 1536 A-scans) and volume scans (20×20; 49 sections, 120 μm spacing, ART set to 16, 512 A-scans) were graded following the CAM criteria independently by two masked readers at the Doheny Image Reading and Research Lab (DIRRL). A senior reader (and member of the CAM group) reviewed all questionable cases flagged by the readers and also adjudicated any discrepancies between graders in order to yield a single consensus result for each case.
# Main outcome measures included assessments at baseline, Month 6 and Month 12 of: a) progression from large drusen (≥40 microns height) to incomplete/complete RPE and outer retina atrophy (iRORA and/or cRORA) and b) progression from iRORA to cRORA. Specifically, the endpoints for each treatment group were: proportion of study eyes with at least one iRORA at baseline that progressed to cRORA at 6 and 12 months, and proportion of individual baseline iRORA lesions that progressed to cRORA at 6 and 12 months.
# Baseline characteristics were summarized using descriptive statistics. Continuous variables, such as GA lesion size, were summarized using the number of observations, mean, standard deviation, median, minimum, and maximum. Categorical variables, such as the presence of iRORA lesion(s) at baseline, were summarized using counts and percentages. The progression of iRORA to cRORA was summarized at Months 6 and 12 at both the study eye and lesion level. For the study-eye-level summaries, the subset of eyes with at least one iRORA lesion at baseline was included. If at least one iRORA lesion was present at baseline progressed to cRORA during follow-up, the eye was counted as having progressed. The proportion of study eyes with progression was compared between each pegcetacoplan group and the sham control group using a Pearson chi-square test. P values <0.05 were considered statistically significant. Risk ratios and their corresponding 95% confidence intervals were calculated as the proportion that progressed from iRORA to cRORA in the pegcetacoplan group divided by the proportion in the sham group. For the lesion-level summaries of progression, each iRORA lesion present at baseline was assessed separately for progression to a cRORA lesion; the proportion of lesions that progressed was compared between each pegcetacoplan group and the sham control group using descriptive statistics (counts and percentages).
# [4] = Repeated intravitreal injection toxicology/toxicokinetics over nine months in cynomolgus monkeys; type: in vivo
# Description: Preclinical studies in monkeys were performed to assess the safety and pharmacology of pegcetacoplan when injected intravitreally. Intravitreally administered pegcetacoplan in cynomolgus monkeys is distributed into the blood stream then further distributed and/or slowly eliminated from the body.
# [5] = system: patients with wet AMD; test: Phase 1b open label single ascending dose clinical trial, intravitreal injection; type: in vivo, human
# Description: In some embodiments a dose for intravitreal injection of a compstatin analog (e.g., comprising two compstatin analog moieties and a PEG having a molecular weight of about 40 kD) is 5 mg-20 mg. In some embodiments the dose is 10 mg. In some embodiments the dose is 10 mg, 11 mg, 12 mg, 13 mg, 14 mg, 15 mg, 16 mg, 17 mg, 18 mg, 19 mg, or 20 mg. In certain particular embodiments the dose is 15 mg. In some embodiments, any of the afore-mentioned doses is administered by intravitreal injection in a volume of between 90 and 110 microliters, e.g., in a volume of 100 microliters. In some embodiments, any of the afore-mentioned doses is administered by intravitreal injection using a 27, 28, 29, or 30 gauge needle. […] In certain embodiments a combination of dose and needle gauge that allows administration by IVT injection in 10 seconds or less is selected. In certain embodiments a combination of dose and needle that allows administration of the dose by IVT injection in 5-6 seconds, or less, is used.
# A Phase 1 open label, single ascending dose clinical trial of pegcetacoplan in patients with wet AMD and receiving anti-VEGF therapy (specifically, Lucentis®, Eylea® or Avastin®), was initiated to assess safety, tolerability and PK of pegcetacoplan. In this trial, patients receive a single dose of pegcetacoplan by intravitreal injection followed by 113 days of monitoring. […]
substance,measurement,setting,value
"Poly(oxy-1,2-ethanediyl), α-hydro-ω-hydroxy-, 15,15′-diester with N-acetyl-L-isoleucyl-L-cysteinyl-L-valyl-1-methyl-L-tryptophyl-L-glutaminyl-L-α-aspartyl-L-tryptophylglycyl-L-alanyl-L-histidyl-L-arginyl-L-cysteinyl-L-threonyl-2-[2-(2-aminoethoxy)ethoxy]acetyl-N^6-carboxy-L-lysinamide cyclic (2->12)-(disulfide) [pegcetacoplan]",vitreal half-life,[1],approximately 3.2 days
same,apparent half-life of serum concentrations,[1]; serum,10.4 days
same,post-dose day until which serum concentrations increased,[1]; serum,7 days
same,rate of GA lesion growth (change in GA lesion size from baseline to month 12),[2],reduced rate of lesion growth
same,reduction in the risk of progression to cRORA compared with sham,"[3]; every other month, lesion level",40%
same,reduction in the risk of progression to cRORA compared with sham,"[3]; every other month, study-eye level",30%
same,reduction in the risk of progression to cRORA compared with sham,"[3]; monthly, lesion level",41%
same,reduction in the risk of progression to cRORA compared with sham,"[3]; monthly, study-eye level",39%
same,Relative risk of progression from iRORA to cRORA vs sham (95% CI),"[3]; Month 6, PEOM, lesion level data",0.51 (0.30-0.87)
same,Relative risk of progression from iRORA to cRORA vs sham (95% CI),"[3]; Month 6, PEOM, study-eye level",0.76 (0.45-1.29)
same,Relative risk of progression from iRORA to cRORA vs sham (95% CI),"[3]; Month 6, PM, lesion level data",0.53 (0.24-1.14)
same,Relative risk of progression from iRORA to cRORA vs sham (95% CI),"[3]; Month 6, PM, study-eye level",0.52 (0.23-1.18)
same,progression from large drusen to iRORA/cRORA,"[3]; Month 12, 15 mg monthly (PM)",22.6%
same,Relative risk of progression from iRORA to cRORA vs sham (95% CI),"[3]; Month 12, PEOM, lesion level data",0.60 (0.43-0.82)
same,Relative risk of progression from iRORA to cRORA vs sham (95% CI),"[3]; Month 12, PEOM, study-eye level",0.70 (0.50-0.98)
same,Relative risk of progression from iRORA to cRORA vs sham (95% CI),"[3]; Month 12, PM, lesion level data",0.59 (0.36-0.97)
same,Relative risk of progression from iRORA to cRORA vs sham (95% CI),"[3]; Month 12, PM, study-eye level",0.61 (0.37-1.00)
same,progression events from large drusen to iRORA/cRORA vs sham (in words),"[3]; Month 12, monthly",relatively fewer progression events
same,rate of progression from nascent GA to GA compared to sham controls (in words),[3]; intravitreal injections monthly or every other month,lower rate of progression from nascent GA to GA
same,rate of progression of iRORA lesions to cRORA,"[3]; month 6, every other month (PEOM), lesion level",20.0%
same,"progression from iRORA to cRORA, proportion of study eyes","[3]; month 6, every other month (PEOM), study-eye level",40.6%
same,rate of progression of iRORA lesions to cRORA,"[3]; month 6, monthly (PM), lesion level",20.7%
same,"progression from iRORA to cRORA, proportion of study eyes","[3]; month 6, monthly (PM), study-eye level",27.8%
same,rate of progression of iRORA lesions to cRORA,"[3]; month 12, every other month (EOM), lesion level",38.4%
same,"progression from iRORA to cRORA, proportion of study eyes","[3]; month 12, every other month (PEOM), study-eye level",57.6%
same,rate of progression of iRORA lesions to cRORA,"[3]; month 12, monthly (PM), lesion level",37.9%
same,"progression from iRORA to cRORA, proportion of study eyes","[3]; month 12, monthly (PM), study-eye level",50.0%
same,rate of progression from iRORA to cRORA compared to sham group (in words),[3]; monthly or every other month,lower rate of progression from iRORA to cRORA
same,intraocular or serum accumulation over multiple injections,"[4]; doses up to 24.8 mg/eye in 5% dextrose, 50 or 100 μL/eye",little intraocular or serum accumulation
same,"full toxicological review (ophthalmological assessment, SD-OCT, electroretinography, tonometry, histopathology)","[4]; repeated intravitreal injections over nine months, doses up to 24.8 mg/eye",no evidence of pegcetacoplan-mediated changes
same,serious adverse events,"[5]; initial nine patients, single intravitreal dose 5, 10 or 20 mg",no serious adverse events were reported
same,tolerability,"[5]; single intravitreal dose 5 mg, 10 mg, 20 mg in 100 microliters",well tolerated
